Laboratory results: patent publication US5552404A, “Opioid compounds and methods for using same” (Delta Pharmaceuticals, Inc., priority 1995, dated 1996)

Assays:
[1] = tested on: mu opioid receptor; assay: Agonism at mu opioid receptor
[2] = molecular target: delta opioid receptor (Mus musculus, UniProt P32300); assay: Agonism at delta opioid receptor
[3] = tested on: rodent test subjects; assay: Muscle rigidity in rodents; conditions: vs morphine
[4] = tested on: rodent test subjects; assay: Respiratory depression in rodents; conditions: vs morphine
[5] = tested on: rodent test subjects; assay: Proconvulsant activity in rodent tests
[6] = tested on: rodent test subjects; assay: Analgesia; type: in vivo; conditions: for analgesia efficacy: in vivo; for analgesia compared with morphine: rodent test subjects
[7] = tested on: opioid receptors (mu/delta); assay: Opioid receptor ligand selectivity / mixed agonist character
[8] = tested on: pressure nociception in rats; assay: Analgesic activity, tail pinch assay in rats (i.v.); type: in vivo, rat (male Sprague-Dawley CD strain); conditions: iv, 5 min, rat tail pinch, 5 minutes after injection, read-out: Antinociceptive ED50 (half-maximum effective dose)
Method: Analgesic activity was assessed by the tail pinch assay in rats (male Sprague-Dawley CD strain, weight approximately 300 g) after intravenous (i.v.) tail vein injection. A group of 6 to 8 animals was injected i.v. with compound in sterile 5% dextrose solution at a concentration of 1-5 mg/mL. Five minutes after injection, an artery clamp (Fisher Scientific Co., self-closing artery forcep, catalog #08-905) was placed on the tail about one inch from the tip of the tail to induce pressure nociception for a short duration (maximum of 20 seconds). The nociceptive response was judged by any sign of discomfort, such as running, squeaking, or turning around to bite the clamp. The dose-response curve was plotted for each compound.

Sequence of delta opioid receptor (P32300 whole entry): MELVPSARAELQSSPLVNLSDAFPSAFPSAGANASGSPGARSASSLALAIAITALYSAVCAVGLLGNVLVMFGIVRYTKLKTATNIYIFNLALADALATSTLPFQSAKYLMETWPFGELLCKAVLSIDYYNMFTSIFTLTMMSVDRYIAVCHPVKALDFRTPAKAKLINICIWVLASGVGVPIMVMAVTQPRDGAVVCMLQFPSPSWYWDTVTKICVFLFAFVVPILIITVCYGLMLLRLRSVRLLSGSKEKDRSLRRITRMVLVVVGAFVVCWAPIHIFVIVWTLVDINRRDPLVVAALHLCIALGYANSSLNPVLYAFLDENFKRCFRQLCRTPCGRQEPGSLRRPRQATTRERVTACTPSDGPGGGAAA

Structure (SMILES) | agonism at mu opioid receptor [1] | agonism at delta opioid receptor [2] | muscle rigidity [3] | respiratory depression [4] | proconvulsant activity [5] | analgesia efficacy [6] | analgesia compared with morphine [6] | opioid agonist character [7] | opioid receptor ligand selectivity [7] | ED50 [8]
C=CCN1C[C@H](C)N([C@@H](c2cccc(O)c2)c2cccc(C(=O)N(C)c3ccccc3)c2)C[C@H]1C [Example 9, (+)-3-((αR)-α-((2S,5R)-4-Allyl-2.5dimethyl-1-piperazinyl)-3-hydroxybenzyl)-N-methyl-N-phenylbenzamide] | agonism | agonism | much reduced extent | much reduced extent | free of proconvulsant activity | efficacious in mediating analgesia | comparable to mu-analgesic morphine | mixed mu/delta opioid agonists | highly selective | –
C=CCN1C[C@H](C)N([C@@H](c2cccc(O)c2)c2cccc(C(=O)N(C)c3ccc(F)cc3)c2)C[C@H]1C [Example 10, (+)-3-((αR)-α-((2S,5R)-4-Allyl-2,5-dimethyl-1-piperazinyl)-3-hydroxybenzyl)-N-(4-fluorophenyl)-N-methylbenzamide] | agonism | agonism | much reduced extent | much reduced extent | free of proconvulsant activity | efficacious in mediating analgesia | comparable to mu-analgesic morphine | mixed mu/delta opioid agonists | highly selective | –
C=CCN1C[C@H](C)N([C@@H](c2cccc(O)c2)c2cccc(C(=O)N(CC)CC)c2)C[C@H]1C [Example 1, (+)-3-((αR)-α-((2S,5R)-4-Allyl-2,5-dimethyl-1-piperazinyl)-3-hydroxybenzyl)-N,N-diethylbenzamide] | agonism | agonism | much reduced extent | much reduced extent | free of proconvulsant activity | efficacious in mediating analgesia | comparable to mu-analgesic morphine | mixed mu/delta opioid agonists | highly selective | 0.35 mg/kg
C=CCN1C[C@H](C)N([C@@H](c2cccc(O)c2)c2cccc(C(=O)N(CC)c3ccc(F)cc3)c2)C[C@H]1C [Example 28, (+)-3-((αR)-α-((2S,5R)-4-Allyl-2,5-dimethyl-1-piperazinyl)-3-hydroxybenzyl)-N-ethyl-N-(4-fluorophenyl)benzamide] | agonism | agonism | much reduced extent | much reduced extent | free of proconvulsant activity | efficacious in mediating analgesia | comparable to mu-analgesic morphine | mixed mu/delta opioid agonists | highly selective | 0.03 mg/kg
C=CCN1C[C@H](C)N([C@@H](c2cccc(O)c2)c2cccc(C(=O)N(CC)c3ccccc3)c2)C[C@H]1C [Example 12, (+)-3-((αR)-α-((2S,5R)-4-Allyl-2,5-dimethyl-1-piperazinyl)-3-hydroxybenzyl)-N-ethyl-N-phenylbenzamide] | agonism | agonism | much reduced extent | much reduced extent | free of proconvulsant activity | efficacious in mediating analgesia | comparable to mu-analgesic morphine | mixed mu/delta opioid agonists | highly selective | –
C=CCN1C[C@H](C)N([C@@H](c2cccc(O)c2)c2cccc(C(=O)N(C)c3ccccc3F)c2)C[C@H]1C [Example 31, (+)-3-((αR)-α-((2S,5R)-4-Allyl-2,5-dimethyl-1-piperazinyl)-3-hydroxybenzyl)-N-(2-fluorophenyl)-N-methylbenzamide] | agonism | agonism | much reduced extent | much reduced extent | free of proconvulsant activity | efficacious in mediating analgesia | comparable to mu-analgesic morphine | mixed mu/delta opioid agonists | highly selective | –
C=CCN1C[C@H](C)N([C@@H](c2cccc(O)c2)c2cccc(C(=O)N(CCC)c3ccccc3)c2)C[C@H]1C [Example 27, (+)-3-((αR)-α-((2S,5R)-4-Allyl-2.5-dimethyl-1-piperazinyl)-3-hydroxybenzyl)-N-phenyl-N-propylbenzamide] | agonism | agonism | much reduced extent | much reduced extent | free of proconvulsant activity | efficacious in mediating analgesia | comparable to mu-analgesic morphine | mixed mu/delta opioid agonists | highly selective | 0.04 mg/kg
C=CCN1C[C@H](C)N([C@@H](c2cccc(O)c2)c2cccc(C(=O)N(C)c3ccc(OC)cc3)c2)C[C@H]1C [Example 30, (+)-3-((αR)-α-((2S,5R)-4-Allyl-2.5-dimethyl-1-piperazinyl)-3-hydroxybenzyl)-N-(4-methoxyphenyl)-N-methylbenzamide] | agonism | agonism | much reduced extent | much reduced extent | free of proconvulsant activity | efficacious in mediating analgesia | comparable to mu-analgesic morphine | mixed mu/delta opioid agonists | highly selective | –
C=CCN1C[C@H](C)N([C@@H](c2cccc(O)c2)c2cccc(C(=O)N(C)c3cccc(F)c3)c2)C[C@H]1C [Example 16, (+)-3-((αR)-α-((2S,5R)-4-Allyl-2,5-dimethyl-1-piperazinyl)-3-hydroxybenzyl)-N-(3-fluorophenyl)-N-methylbenzamide] | agonism | agonism | much reduced extent | much reduced extent | free of proconvulsant activity | efficacious in mediating analgesia | comparable to mu-analgesic morphine | mixed mu/delta opioid agonists | highly selective | 0.03 mg/kg
